The numbers were not newly measured in patent US20250231185A1, “Coronavirus T Cell Epitopes, Megapools and Uses Thereof” (La Jolla Institute for Immunology, priority 2021, published 2025), which cites them from elsewhere.

This series relates to CD8+ T cells. As to conditions: CD8R (D) megapool epitopes; dominant = recognized by 3 or more donors/different studies; cited from earlier work.
As for 1709 (LPAADLDDF) [compound 1709], the Dominant entry was “Yes (more dominant epitopes are defined by being recognized by 3 or more donors/different studies)”. In the case of 1710 (FSKQLQQSM) [compound 1710], the Dominant result was “Yes (more dominant epitopes are defined by being recognized by 3 or more donors/different studies)”. With 1711 (VLSEARQHL) [compound 1711], the Dominant result is “Yes (more dominant epitopes are defined by being recognized by 3 or more donors/different studies)”.

Regarding 1712 (TVLSFCAFAV) [compound 1712], the Dominant result was “Yes (more dominant epitopes are defined by being recognized by 3 or more donors/different studies)”. As for 1713 (DLKGKYVQI) [compound 1713], the Dominant entry is given as “Yes (more dominant epitopes are defined by being recognized by 3 or more donors/different studies)”. With 1714 (YTMADLVYAL) [compound 1714], the Dominant result is recorded as “Yes (more dominant epitopes are defined by being recognized by 3 or more donors/different studies)”. On to 1715 (TMADLVYAL) [compound 1715], for which the Dominant result is given as “Yes (more dominant epitopes are defined by being recognized by 3 or more donors/different studies)”. Consider 1716 (LLMPILTLT) [compound 1716], for which the Dominant entry is reported as “Yes (more dominant epitopes are defined by being recognized by 3 or more donors/different studies)”. With 1717 (KLFDRYFKY) [compound 1717], the Dominant entry is given as “Yes (more dominant epitopes are defined by being recognized by 3 or more donors/different studies)”. For 1718 (FVDGVPFVV) [compound 1718], the Dominant result is recorded as “Yes (more dominant epitopes are defined by being recognized by 3 or more donors/different studies)”.

On to 1719 (ISDYDYYRY) [compound 1719], for which the Dominant entry is listed as “Yes (more dominant epitopes are defined by being recognized by 3 or more donors/different studies)”.

Regarding 1720 (RQLLFVVEV) [compound 1720], the Dominant result is recorded as “Yes (more dominant epitopes are defined by being recognized by 3 or more donors/different studies)”. For the substance 1721 (VVDKYFDCY) [compound 1721], the Dominant entry is on record as “Yes (more dominant epitopes are defined by being recognized by 3 or more donors/different studies)”. For 1722 (RLYYDSMSY) [compound 1722], the Dominant result was “Yes (more dominant epitopes are defined by being recognized by 3 or more donors/different studies)”. Regarding 1723 (MVMCGGSLYV) [compound 1723], the Dominant result is given as “Yes (more dominant epitopes are defined by being recognized by 3 or more donors/different studies)”. 1724 (DTDFVNEFY) [compound 1724]: the Dominant result is reported as “Yes (more dominant epitopes are defined by being recognized by 3 or more donors/different studies)”. Regarding 1725 (FYAYLRKHF) [compound 1725], the Dominant result is reported as “Yes (more dominant epitopes are defined by being recognized by 3 or more donors/different studies)”. Regarding 1726 (RILGAGCFV) [compound 1726], the Dominant result was “Yes (more dominant epitopes are defined by being recognized by 3 or more donors/different studies)”. On to 1728 (LYLQYIRKL) [compound 1728], for which the Dominant result is on record as “Yes (more dominant epitopes are defined by being recognized by 3 or more donors/different studies)”. Take 1729 (VLQAVGACV) [compound 1729]: the Dominant result is recorded as “Yes (more dominant epitopes are defined by being recognized by 3 or more donors/different studies)”. In the case of 1730 (LVLSVNPYV) [compound 1730], the Dominant entry is on record as “Yes (more dominant epitopes are defined by being recognized by 3 or more donors/different studies)”. As for 1733 (VVYRGTTTY) [compound 1733], the Dominant result is “Yes (more dominant epitopes are defined by being recognized by 3 or more donors/different studies)”. As to 1734 (VVYRGTTTYK) [compound 1734], the Dominant entry is listed as “Yes (more dominant epitopes are defined by being recognized by 3 or more donors/different studies)”. Turning to 1735 (VYRGTTTYKL) [compound 1735], the Dominant result was “Yes (more dominant epitopes are defined by being recognized by 3 or more donors/different studies)”.

1736 (KLNVGDYFV) [compound 1736]: the Dominant result is recorded as “Yes (more dominant epitopes are defined by being recognized by 3 or more donors/different studies)”. Regarding 1737 (SSNVANYQK) [compound 1737], the Dominant result is on record as “Yes (more dominant epitopes are defined by being recognized by 3 or more donors/different studies)”. For 1738 (VYIGDPAQL) [compound 1738], the Dominant result is given as “Yes (more dominant epitopes are defined by being recognized by 3 or more donors/different studies)”. For 1739 (IVDTVSALV) [compound 1739], the Dominant entry is recorded as “Yes (more dominant epitopes are defined by being recognized by 3 or more donors/different studies)”. Regarding 1741 (VLWAHGFEL) [compound 1741], the Dominant result is “Yes (more dominant epitopes are defined by being recognized by 3 or more donors/different studies)”. Regarding 1742 (TYACWHHSI) [compound 1742], the Dominant result is recorded as “Yes (more dominant epitopes are defined by being recognized by 3 or more donors/different studies)”. For 1743 (AIMTRCLAV) [compound 1743], the Dominant result is recorded as “Yes (more dominant epitopes are defined by being recognized by 3 or more donors/different studies)”. 1744 (IEYPIIGDEL) [compound 1744]: the Dominant result is reported as “Yes (more dominant epitopes are defined by being recognized by 3 or more donors/different studies)”.

With 1745 (ALLADKFPV) [compound 1745], the Dominant entry is recorded as “Yes (more dominant epitopes are defined by being recognized by 3 or more donors/different studies)”. As to 1746 (SYATHSDKF) [compound 1746], the Dominant entry is “Yes (more dominant epitopes are defined by being recognized by 3 or more donors/different studies)”.

On to 1748 (MMISAGFSL) [compound 1748], for which the Dominant entry was “Yes (more dominant epitopes are defined by being recognized by 3 or more donors/different studies)”.

For the substance 1749 (KQFDTYNLW) [compound 1749], the Dominant result is on record as “Yes (more dominant epitopes are defined by being recognized by 3 or more donors/different studies)”.

1750 (NLWNTFTRL) [compound 1750]: the Dominant result is reported as “Yes (more dominant epitopes are defined by being recognized by 3 or more donors/different studies)”. In the case of 1751 (KVDGVDVEL) [compound 1751], the Dominant result is given as “Yes (more dominant epitopes are defined by being recognized by 3 or more donors/different studies)”. 1752 (LLLDDFVEII) [compound 1752]: the Dominant result was “Yes (more dominant epitopes are defined by being recognized by 3 or more donors/different studies)”. Consider 1753 (MLWCKDGHV) [compound 1753], for which the Dominant entry is listed as “Yes (more dominant epitopes are defined by being recognized by 3 or more donors/different studies)”. For the substance 1754 (GVAMPNLYK) [compound 1754], the Dominant entry is “Yes (more dominant epitopes are defined by being recognized by 3 or more donors/different studies)”. 1755 (KMQRMLLEK) [compound 1755]: the Dominant entry is listed as “Yes (more dominant epitopes are defined by being recognized by 3 or more donors/different studies)”. For the substance 1758 (KTIQPRVEK) [compound 1758], the Dominant entry is “Yes (more dominant epitopes are defined by being recognized by 3 or more donors/different studies)”. Regarding 1759 (KLVNKFLAL) [compound 1759], the Dominant result was “Yes (more dominant epitopes are defined by being recognized by 3 or more donors/different studies)”.

Consider 1760 (VTNNTFTLK) [compound 1760], for which the Dominant result is “Yes (more dominant epitopes are defined by being recognized by 3 or more donors/different studies)”. As for 1761 (FGDDTVIEV) [compound 1761], the Dominant entry is “Yes (more dominant epitopes are defined by being recognized by 3 or more donors/different studies)”. For 1762 (PTDNYITTY) [compound 1762], the Dominant entry is reported as “Yes (more dominant epitopes are defined by being recognized by 3 or more donors/different studies)”. As to 1763 (QEILGTVSW) [compound 1763], the Dominant result is “Yes (more dominant epitopes are defined by being recognized by 3 or more donors/different studies)”. For 1764 (TTDPSFLGRY) [compound 1764], the Dominant entry is listed as “Yes (more dominant epitopes are defined by being recognized by 3 or more donors/different studies)”. In the case of 1765 (YLATALLTL) [compound 1765], the Dominant result was “Yes (more dominant epitopes are defined by being recognized by 3 or more donors/different studies)”. In the case of 1766 (SAPPAQYEL) [compound 1766], the Dominant result is “Yes (more dominant epitopes are defined by being recognized by 3 or more donors/different studies)”. Consider 1767 (NYMPYFFTL) [compound 1767], for which the Dominant entry is reported as “Yes (more dominant epitopes are defined by being recognized by 3 or more donors/different studies)”. With 1768 (ASMPTTIAK) [compound 1768], the Dominant entry is “Yes (more dominant epitopes are defined by being recognized by 3 or more donors/different studies)”. For the substance 1769 (ILFTRFFYV) [compound 1769], the Dominant result is listed as “Yes (more dominant epitopes are defined by being recognized by 3 or more donors/different studies)”.

Consider 1770 (YIFFASFYY) [compound 1770], for which the Dominant result is reported as “Yes (more dominant epitopes are defined by being recognized by 3 or more donors/different studies)”.

Regarding 1771 (QLMCQPILLL) [compound 1771], the Dominant entry is recorded as “Yes (more dominant epitopes are defined by being recognized by 3 or more donors/different studies)”. As to 1772 (STFNVPMEK) [compound 1772], the Dominant result was “Yes (more dominant epitopes are defined by being recognized by 3 or more donors/different studies)”.

Turning to 1773 (FLPRVFSAV) [compound 1773], the Dominant result is “Yes (more dominant epitopes are defined by being recognized by 3 or more donors/different studies)”. As to 1774 (FSAVGNICY) [compound 1774], the Dominant result was “Yes (more dominant epitopes are defined by being recognized by 3 or more donors/different studies)”.

For 1775 (SLRPDTRYVL) [compound 1775], the Dominant result is “Yes (more dominant epitopes are defined by being recognized by 3 or more donors/different studies)”.
